# According to patent US9302999B2, “Substituted triazoles as herbicides” (E. I. DU PONT DE NEMOURS AND COMPANY, priority 2012, dated 2016):
# How the values were obtained:
# Assay type in all cases: in vivo
# [1] = test system: pigweed (Amaranthus retroflexus); assay: Test C pre-/postemergence: pigweed
# Summary of the method: (§1)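 Preemergence on seeds in loam/sand, postemergence on 2–18 cm (1–4-leaf) plants in peat-based medium; compounds in non-phytotoxic solvent with surfactant. After 13–15 days in greenhouse, visual rating versus controls, 0 (no effect) to 100 (complete control).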
# [2] = test system: velvetleaf (Abutilon theophrasti); assay: Test A pre-/postemergence: velvetleaf; conditions: for Velvetleaf plant response rating: visual rating on 0 to 100 scale (0 no effect, 100 complete control), approximately ten days
# Summary of the method: (§2)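 Visual 0–100 injury ratings (0 no effect, 100 complete control) taken about ten days after treatment, relative to untreated controls. Preemergence treatment was a directed soil spray; postemergence plants were 2–10 cm tall at one- to two-leaf stage. Soil: loam/sand blend.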
# wild oat (Avena fatua) = assay: Test C pre-/postemergence: wild oat
# Summary of the method: as §1
# corn (Zea mays) = assay: Test A pre-/postemergence: corn; conditions: for Corn plant response rating: Postemergence; for Plant response rating, Corn: Preemergence
# Summary of the method: as §2
# [3] = test system: barnyardgrass (Echinochloa crus-galli); assay: Test A pre-/postemergence: barnyardgrass; conditions: for Barnyardgrass plant response rating: Postemergence; for Plant response rating, Barnyardgrass: Preemergence
# Summary of the method: as §2
# [4] = test system: blackgrass (Alopecurus myosuroides); assay: Test C pre-/postemergence: blackgrass
# Summary of the method: as §1
# rice (Oryza sativa) = assay: Test B flooded paddy: rice; conditions: Flood; 250 g ai/ha; applied to paddy water at 2-leaf stage; visually evaluated after 13 to 15 days
# Summary of the method: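 Plants were grown to the 2-leaf stage and pots flooded to 3 cm above soil. Compounds were applied directly into the paddy water, with depth kept for the test. After 13–15 days in greenhouse, response was rated visually against controls on a 0 (no effect) to 100 (complete control) scale.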
# [5] = test system: winter wheat (Triticum aestivum); assay: Test C pre-/postemergence: winter wheat
# Summary of the method: as §1
# [6] = test system: chickweed (common chickweed, Stellaria media); assay: Test C postemergence: chickweed
# Summary of the method: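 Crop and weed plants were grown in peat-vermiculite medium and treated postemergence at the 1- to 4-leaf stage (2-18 cm tall). After 13-15 days in a greenhouse, each species was rated visually against untreated controls on a 0-100 scale (0 no effect, 100 complete control).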
# [7] = test system: johnsongrass (Sorghum halepense); assay: Test C pre-/postemergence: johnsongrass
# Summary of the method: as §1
# [8] = Postemergence, 31 g ai/ha, scale 0 to 100 (0 no effect, 100 complete control)
# [9] = Postemergence, 62 g ai/ha, scale 0 to 100 (0 no effect, 100 complete control)
# [10] = Postemergence, 125 g ai/ha, scale 0 to 100, 0 no effect, 100 complete control
# [11] = Postemergence, 250 g ai/ha, scale 0 to 100
# [12] = Preemergence, 31 g ai/ha, scale of 0 to 100, 0 is no effect, 100 is complete control
# [13] = Preemergence, 62 g ai/ha, scale of 0 to 100, 0 is no effect, 100 is complete control
# [14] = Preemergence, 125 g ai/ha, scale 0 to 100, 0 no effect, 100 complete control
# [15] = Preemergence, 250 g ai/ha, scale 0 to 100, 0 no effect, 100 complete control
# [16] = Postemergence, 125 g ai/ha, 0 to 100 scale, 0 is no effect, 100 is complete control
# [17] = Preemergence, 125 g ai/ha, 0 to 100 scale where 0 is no effect and 100 is complete control
# [18] = Preemergence, 500 g ai/ha, 0 to 100 scale (0 no effect, 100 complete control)
# [19] = 125 g ai/ha, 0 to 100 scale, 0 is no effect, 100 is complete control
# [20] = 500 g ai/ha, visual rating on 0 to 100 scale (0 no effect, 100 complete control), approximately ten days
# [21] = 125 g ai/ha, 0 to 100 scale where 0 is no effect and 100 is complete control
# [22] = 500 g ai/ha, 0 to 100 scale (0 no effect, 100 complete control)
# [23] = 31 g ai/ha, scale 0 to 100 (0 no effect, 100 complete control)
# [24] = 62 g ai/ha, scale 0 to 100 (0 no effect, 100 complete control)
# [25] = 125 g ai/ha, scale 0 to 100, 0 no effect, 100 complete control
structure (smiles),measurement,setting,value
COc1nn(-c2cccc(F)c2)nc1Cc1ccnc(C(F)(F)F)c1 [Compound 139],"Plant response rating, Pigweed",[1]; [8],95
same,"Plant response rating, Pigweed",[1]; [9],98
same,"Plant response rating, Pigweed",[1]; [10],98
same,"Plant response rating, Pigweed",[1]; [11],98
same,"Plant response rating, Pigweed",[1]; [12],98
same,"Plant response rating, Pigweed",[1]; [13],98
same,"Plant response rating, Pigweed",[1]; [14],100
same,"Plant response rating, Pigweed",[1]; [15],100
same,"Plant response rating, Velvetleaf",[2]; [16],90
same,Velvetleaf plant response rating,"[2]; Postemergence, 500 g ai/ha",100
same,"Plant response rating, Velvetleaf",[2]; [17],30
same,"Plant response rating, Velvetleaf",[2]; [18],90
same,"Plant response rating, Oat, Wild",wild oat (Avena fatua); [8],40
same,"Plant response rating, Oat, Wild",wild oat (Avena fatua); [9],50
same,"Plant response rating, Oat, Wild",wild oat (Avena fatua); [10],60
same,"Plant response rating, Oat, Wild",wild oat (Avena fatua); [11],80
same,"Plant response rating, Oat, Wild",wild oat (Avena fatua); [12],10
same,"Plant response rating, Oat, Wild",wild oat (Avena fatua); [13],50
same,"Plant response rating, Oat, Wild",wild oat (Avena fatua); [15],85
same,Corn plant response rating,corn (Zea mays); [19],30
same,Corn plant response rating,corn (Zea mays); [20],50
same,"Plant response rating, Corn",corn (Zea mays); [21],10
same,"Plant response rating, Corn",corn (Zea mays); [22],30
same,Barnyardgrass plant response rating,[3]; [19],90
same,Barnyardgrass plant response rating,[3]; [20],100
same,"Plant response rating, Barnyardgrass",[3]; [21],80
same,"Plant response rating, Barnyardgrass",[3]; [22],100
same,"Plant response rating, Blackgrass",[4]; [8],35
same,"Plant response rating, Blackgrass",[4]; [9],40
same,"Plant response rating, Blackgrass",[4]; [10],70
same,"Plant response rating, Blackgrass",[4]; [11],70
same,"Plant response rating, Blackgrass",[4]; [12],45
same,"Plant response rating, Blackgrass",[4]; [13],90
same,"Plant response rating, Blackgrass",[4]; [14],90
same,"Plant response rating, Blackgrass",[4]; [15],90
same,"Plant response rating, Rice (0 to 100 scale, 0 is no effect, 100 is complete control)",rice (Oryza sativa),45
same,"Plant response rating, Wheat",[5]; [8],10
same,"Plant response rating, Wheat",[5]; [9],10
same,"Plant response rating, Wheat",[5]; [10],40
same,"Plant response rating, Wheat",[5]; [11],40
same,"Plant response rating, Wheat",[5]; [13],0
same,"Plant response rating, Wheat",[5]; [14],10
same,"Plant response rating, Wheat",[5]; [15],20
same,"Plant response rating, Chickweed",[6]; [23],75
same,"Plant response rating, Chickweed",[6]; [24],98
same,"Plant response rating, Chickweed",[6]; [25],98
same,"Plant response rating, Chickweed","[6]; 250 g ai/ha, scale 0 to 100",100
same,"Plant response rating, Johnsongrass",[7]; [8],30
same,"Plant response rating, Johnsongrass",[7]; [9],50
same,"Plant response rating, Johnsongrass",[7]; [10],80
same,"Plant response rating, Johnsongrass",[7]; [11],80
same,"Plant response rating, Johnsongrass",[7]; [12],15
same,"Plant response rating, Johnsongrass",[7]; [13],45
same,"Plant response rating, Johnsongrass",[7]; [14],100
same,"Plant response rating, Johnsongrass",[7]; [15],100
Cc1nn(-c2ccnc(Cl)c2)nc1Cc1ccnc(C(F)(F)F)c1 [Compound 141],"Plant response rating, Pigweed",[1]; [8],95
same,"Plant response rating, Pigweed",[1]; [9],95
same,"Plant response rating, Pigweed",[1]; [10],98
same,"Plant response rating, Pigweed",[1]; [11],98
same,"Plant response rating, Velvetleaf",[2]; [16],70
same,Velvetleaf plant response rating,"[2]; Postemergence, 500 g ai/ha",90
same,"Plant response rating, Velvetleaf",[2]; [17],20
same,"Plant response rating, Velvetleaf",[2]; [18],60
same,"Plant response rating, Oat, Wild",wild oat (Avena fatua); [8],10
same,"Plant response rating, Oat, Wild",wild oat (Avena fatua); [9],15
same,"Plant response rating, Oat, Wild",wild oat (Avena fatua); [10],45
same,"Plant response rating, Oat, Wild",wild oat (Avena fatua); [11],70
same,Corn plant response rating,corn (Zea mays); [19],30
same,Corn plant response rating,corn (Zea mays); [20],50
same,"Plant response rating, Corn",corn (Zea mays); [21],0
same,"Plant response rating, Corn",corn (Zea mays); [22],30
same,Barnyardgrass plant response rating,[3]; [19],80
same,Barnyardgrass plant response rating,[3]; [20],90
same,"Plant response rating, Barnyardgrass",[3]; [21],40
same,"Plant response rating, Barnyardgrass",[3]; [22],100
same,"Plant response rating, Blackgrass",[4]; [8],20
same,"Plant response rating, Blackgrass",[4]; [9],20
same,"Plant response rating, Blackgrass",[4]; [10],35
same,"Plant response rating, Blackgrass",[4]; [11],75
same,"Plant response rating, Rice (0 to 100 scale, 0 is no effect, 100 is complete control)",rice (Oryza sativa),35
same,"Plant response rating, Wheat",[5]; [8],10
same,"Plant response rating, Wheat",[5]; [9],15
same,"Plant response rating, Wheat",[5]; [10],20
same,"Plant response rating, Wheat",[5]; [11],20
same,"Plant response rating, Chickweed",[6]; [23],80
same,"Plant response rating, Chickweed",[6]; [24],90
same,"Plant response rating, Chickweed",[6]; [25],98
same,"Plant response rating, Chickweed","[6]; 250 g ai/ha, scale 0 to 100",100
same,"Plant response rating, Johnsongrass",[7]; [8],10
same,"Plant response rating, Johnsongrass",[7]; [9],10
same,"Plant response rating, Johnsongrass",[7]; [10],15
same,"Plant response rating, Johnsongrass",[7]; [11],15
